Laboratory results taken from ChEMBL document CHEMBL1201862, “PubChem BioAssay data set” (2004).
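Briefly, cells in 96-well plates were exposed to five compound concentrations for 48 h, and endpoints were estimated by linear interpolation. GI50 marks 50% less growth.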 Active and inactive are the calls of the source. Rule as the data show it: active = GI50 up to about 1.1 µM and inactive = higher.

Experiments:
Assay in all cases: NCI anticancer screen, dose series, 48 h
HCT-116 = tested on: HCT-116
HCT-15 = tested on: HCT-15
SNB-75 = tested on: SNB-75
UACC-257 = tested on: UACC-257
SW-620 = tested on: SW-620
NCI-H522 = tested on: NCI-H522
MDA-MB-231 = tested on: MDA-MB-231
SNB-19 = tested on: SNB-19
SK-OV-3 = tested on: SK-OV-3
T47D = tested on: T47D
SK-MEL-28 = tested on: SK-MEL-28
SF-539 = tested on: SF-539
NCI-H23 = tested on: NCI-H23
EKVX = tested on: EKVX
OVCAR-3 = tested on: OVCAR-3
IGROV-1 = tested on: IGROV-1
SF-268 = tested on: SF-268
HOP-62 = tested on: HOP-62
BT-549 = tested on: BT-549
CAKI-1 = tested on: CAKI-1
OVCAR-4 = tested on: OVCAR-4
SF-295 = tested on: SF-295
SN12C = tested on: SN12C
U-251 = tested on: U-251
SK-MEL-2 = tested on: SK-MEL-2
NCI/ADR-RES = tested on: NCI/ADR-RES
NCI-H460 = tested on: NCI-H460
HT-29 = tested on: HT-29
MDA-MB-435 = tested on: MDA-MB-435
KM12 = tested on: KM12
HL-60 = tested on: HL-60
MCF7 = tested on: MCF7
PC-3 = tested on: PC-3
SR = tested on: SR
TK-10 = tested on: TK-10
A498 = tested on: A498
A549 = tested on: A549
Malme-3M = tested on: Malme-3M
RXF 393 = tested on: RXF 393
CCRF-CEM = tested on: CCRF-CEM
SK-MEL-5 = tested on: SK-MEL-5
MOLT-4 = tested on: MOLT-4
786-0 = tested on: 786-0
MDA-N = tested on: MDA-N
NCI-H226 = tested on: NCI-H226
ACHN = tested on: ACHN
LOX IMVI = tested on: LOX IMVI
DU-145 = tested on: DU-145
M14 = tested on: M14
UO-31 = tested on: UO-31
OVCAR-8 = tested on: OVCAR-8
OVCAR-5 = tested on: OVCAR-5
K562 = tested on: K562
COLO 205 = tested on: COLO 205
Hs-578T = tested on: Hs-578T
RPMI-8226 = tested on: RPMI-8226
HOP-92 = tested on: HOP-92
UACC-62 = tested on: UACC-62
HCC 2998 = tested on: HCC 2998

C=C(Cl)/C(=C/Cl)CCC(Br)C(C)(C)Cl.C=C(Cl)/C(=C\Cl)CCC(Br)C(C)(C)Cl (stereo not drawn)
GI50 (HCT-116): > 10000 nM (inactive) | GI50 (HCT-15): > 10000 nM | GI50 (SNB-75): > 10000 nM (inactive) | GI50 (UACC-257): > 10000 nM (inactive) | GI50 (SW-620): > 10000 nM (inactive) | GI50 (NCI-H522): 9770 nM (inactive) | GI50 (MDA-MB-231): > 10000 nM (inactive) | GI50 (SNB-19): > 10000 nM (inactive) | GI50 (SK-OV-3): > 10000 nM (inactive) | GI50 (T47D): > 10000 nM (inactive) | GI50 (SK-MEL-28): > 10000 nM (inactive) | GI50 (SF-539): > 10000 nM (inactive) | GI50 (NCI-H23): > 10000 nM (inactive) | GI50 (EKVX): > 10000 nM (inactive) | GI50 (OVCAR-3): > 10000 nM (inactive) | GI50 (IGROV-1): > 10000 nM (inactive) | GI50 (SF-268): > 10000 nM (inactive) | GI50 (HOP-62): > 10000 nM (inactive) | GI50 (BT-549): > 10000 nM (inactive) | GI50 (CAKI-1): > 10000 nM (inactive) | GI50 (OVCAR-4): > 10000 nM (inactive) | GI50 (SF-295): > 10000 nM (inactive) | GI50 (SN12C): > 10000 nM (inactive) | GI50 (U-251): > 10000 nM (inactive) | GI50 (SK-MEL-2): > 10000 nM (inactive) | GI50 (NCI/ADR-RES): > 10000 nM (inactive) | GI50 (NCI-H460): > 10000 nM (inactive) | GI50 (HT-29): > 10000 nM (inactive) | GI50 (MDA-MB-435): > 10000 nM (inactive) | GI50 (KM12): > 10000 nM (inactive) | GI50 (HL-60): 3560 nM (inactive) | GI50 (MCF7): > 10000 nM (inactive) | GI50 (PC-3): > 10000 nM (inactive) | GI50 (SR): 5450 nM (inactive) | GI50 (TK-10): > 10000 nM (inactive) | GI50 (A498): > 10000 nM (inactive) | GI50 (A549): > 10000 nM (inactive) | GI50 (Malme-3M): > 10000 nM (inactive) | GI50 (RXF 393): > 10000 nM (inactive) | GI50 (CCRF-CEM): 2660 nM (inactive) | GI50 (SK-MEL-5): > 10000 nM (inactive) | GI50 (MOLT-4): 3100 nM (inactive) | GI50 (786-0): > 10000 nM (inactive) | GI50 (MDA-N): > 10000 nM (inactive) | GI50 (NCI-H226): > 10000 nM (inactive) | GI50 (ACHN): > 10000 nM (inactive) | GI50 (LOX IMVI): > 10000 nM (inactive) | GI50 (DU-145): > 10000 nM (inactive) | GI50 (M14): > 10000 nM (inactive) | GI50 (UO-31): > 10000 nM (inactive) | GI50 (OVCAR-8): > 10000 nM (inactive) | GI50 (OVCAR-5): > 10000 nM (inactive) | GI50 (K562): 5430 nM (inactive) | GI50 (COLO 205): > 10000 nM (inactive) | GI50 (Hs-578T): > 10000 nM (inactive) | GI50 (RPMI-8226): > 10000 nM (inactive) | GI50 (HOP-92): > 10000 nM (inactive) | GI50 (UACC-62): > 10000 nM (inactive) | GI50 (HCC 2998): > 10000 nM (inactive)

CC1=C(O)C(=O)C=C2C1=CC=C1[C@@]2(C)CC[C@@]2(C)[C@@H]3C[C@](C)(C(=O)O)CC[C@]3(C)CC[C@]12C [CELASTROL]
GI50 (HCT-116): 22.1 nM (active) | GI50 (HCT-15): 11.3 nM | GI50 (SNB-75): 132 nM (active) | GI50 (UACC-257): 25.6 nM (active) | GI50 (SW-620): 19.9 nM (active) | GI50 (NCI-H522): 14.3 nM (active) | GI50 (MDA-MB-231): 21 nM (active) | GI50 (SNB-19): 75.7 nM (active) | GI50 (SK-OV-3): 238 nM (active) | GI50 (T47D): 19.8 nM (active) | GI50 (SK-MEL-28): 16.4 nM (active) | GI50 (SF-539): 81.1 nM (active) | GI50 (NCI-H23): 52.6 nM (active) | GI50 (EKVX): 47.1 nM (active) | GI50 (OVCAR-3): 26.4 nM (active) | GI50 (IGROV-1): 17.8 nM (active) | GI50 (SF-268): 44.6 nM (active) | GI50 (HOP-62): 237 nM (active) | GI50 (BT-549): 12.4 nM (active) | GI50 (CAKI-1): 13.5 nM (active) | GI50 (OVCAR-4): 18.8 nM (active) | GI50 (SF-295): 194 nM (active) | GI50 (SN12C): 37.6 nM (active) | GI50 (U-251): 29.8 nM (active) | GI50 (SK-MEL-2): 119 nM (active) | GI50 (NCI/ADR-RES): 25.5 nM (active) | GI50 (NCI-H460): 149 nM (active) | GI50 (HT-29): 33 nM (active) | GI50 (MDA-MB-435): 35.1 nM (active) | GI50 (KM12): 169 nM (active) | GI50 (HL-60): 17.3 nM (active) | GI50 (MCF7): 81.8 nM (active) | GI50 (PC-3): 39.3 nM (active) | GI50 (SR): < 10 nM (active) | GI50 (TK-10): < 10.5 nM (active) | GI50 (A498): 33.5 nM (active) | GI50 (A549): 422 nM (active) | GI50 (Malme-3M): 35.2 nM (active) | GI50 (RXF 393): 11.1 nM (active) | GI50 (CCRF-CEM): < 10 nM (active) | GI50 (SK-MEL-5): 70 nM (active) | GI50 (MOLT-4): 12.4 nM (active) | GI50 (786-0): 14.7 nM (active) | GI50 (MDA-N): 23.4 nM (active) | GI50 (NCI-H226): 160 nM (active) | GI50 (ACHN): 16.9 nM (active) | GI50 (LOX IMVI): 18.2 nM (active) | GI50 (DU-145): 67.5 nM (active) | GI50 (M14): 44.9 nM (active) | GI50 (UO-31): 30.8 nM (active) | GI50 (OVCAR-8): 22.6 nM (active) | GI50 (OVCAR-5): 180 nM (active) | GI50 (K562): 20.1 nM (active) | GI50 (COLO 205): 16.6 nM (active) | GI50 (Hs-578T): 42.7 nM (active) | GI50 (RPMI-8226): < 13.6 nM (active) | GI50 (HOP-92): 10.1 nM (active) | GI50 (UACC-62): 23.7 nM (active) | GI50 (HCC 2998): 30.6 nM (active)
